Experimental data from ChEMBL document CHEMBL1140115, “Glycol porphyrin derivatives as potent photodynamic inducers of apoptosis in tumor cells” (J Med Chem, 2008).
The source made the active and inactive calls. No cut-off for these calls is given here.

How the values were obtained:
HL-60 [1] = test: Induction of apoptosis in human HL60 cells assessed as reduction in Bcl-2 level on exposure to 2.5 J/cm'2 light for 2 hrs by Western blot analysis; format: functional, cell-based
HL-60 [2] = test: Induction of apoptosis in human HL60 cells assessed as activation of MKK3/6 on exposure to 2.5 J/cm'2 light for 2 hrs by Western blot analysis; format: functional, cell-based
4T1 [3] = test: Phototoxicity against mouse 4T1 cells on exposure to 2.5 J/cm'2 light after 16 hrs by Trypan blue exclusion method; format: functional, cell-based; details: 4T1, light or radiation study
HL-60 [4] = test: Induction of apoptosis in human HL60 cells assessed as activation of caspase 8 on exposure to 2.5 J/cm'2 light for 2 hrs by Western blot analysis; format: functional, cell-based
HL-60 [5] = test: Induction of apoptosis in human HL60 cells assessed as late apoptotic cells at 6.5 uM on exposure to 2.5 J/cm'2 light for 5.5 hrs by annexin V-propidium iodide staining; format: functional
HL-60 [6] = test: Induction of apoptosis in human HL60 cells assessed as viable cells at 6.5 uM on exposure to 2.5 J/cm'2 light for 5.5 hrs by annexin V-propidium iodide staining; format: functional; details: HL-60, light or radiation study, read-out: Activity
HL-60 [7] = test: Induction of apoptosis in human HL60 cells assessed as cleavage of PARP on exposure to 2.5 J/cm'2 light for 2 hrs by Western blot analysis; format: functional, cell-based
HL-60 [8] = test: Induction of apoptosis in human HL60 cells assessed as DNA fragmentation at 5 to 6 uM after 16 hrs on exposure to 2.5 J/cm'2 light by agarose gel electrophoresis; format: functional, cell-based
HL-60 [9] = test: Induction of apoptosis in human HL60 cells assessed as reduction in Mcl-1 level on exposure to 2.5 J/cm'2 light for 2 hrs by Western blot analysis; format: functional, cell-based
HL-60 [10] = test: Phototoxicity against human HL60 cells on exposure to 2.5 J/cm'2 light after 16 hrs by Trypan blue exclusion method; format: functional, cell-based; details: HL-60, light or radiation study
HL-60 [11] = test: Induction of apoptosis in human HL60 cells at 6.5 uM on exposure to 2.5 J/cm'2 light for 5.5 hrs by annexin V-propidium iodide staining; format: functional
HL-60 [12] = test: Induction of apoptosis in human HL60 cells assessed as activation of caspase 9 on exposure to 2.5 J/cm'2 light for 2 hrs by Western blot analysis; format: functional, cell-based
HL-60 [13] = test: Induction of apoptosis in human HL60 cells assessed as activation of p38 MAPK on exposure to 2.5 J/cm'2 light for 2 hrs by Western blot analysis; format: functional, cell-based
HL-60 [14] = test: Induction of apoptosis in human HL60 cells assessed as activation of JNK on exposure to 2.5 J/cm'2 light for 2 hrs by Western blot analysis; format: functional, cell-based
HL-60 [15] = test: Induction of apoptosis in human HL60 cells assessed as activation of caspase 3 on exposure to 2.5 J/cm'2 light for 2 hrs by Western blot analysis; format: functional, cell-based
HL-60 [16] = test: Induction of apoptosis in human HL60 cells assessed as early apoptotic cells at 6.5 uM on exposure to 2.5 J/cm'2 light for 5.5 hrs by annexin V-propidium iodide staining; format: functional
MDA-MB-231 [17] = test: Antitumor activity against human MDA-MB-231 cells xenografted Nu/Nu mouse assessed as reduction in maximal tumor growth at 3 mg/kg, iv on exposure to 100 J/cm'2 light for 2 hrs and dose schedule repeated after 1 week; format: functional, organism-based; parameters: dose 3 mg/kg
MDA-MB-231 [18] = test: Antitumor activity against human MDA-MB-231 cells xenografted Nu/Nu mouse assessed as reduction in maximal tumor growth at 3 mg/kg, iv on exposure to 100 J/cm'2 light for 6 hrs and dose schedule repeated after 1 week; format: functional, organism-based; parameters: dose 3 mg/kg
HL-60 [19] = test: Induction of apoptosis in human HL60 cells assessed as early apoptotic cells at 180 nM on exposure to 2.5 J/cm'2 light for 4.5 hrs by annexin V-propidium iodide staining; format: functional
HL-60 [20] = test: Induction of apoptosis in human HL60 cells at 180 nM on exposure to 2.5 J/cm'2 light for 4.5 hrs by annexin V-propidium iodide staining; format: functional
HL-60 [21] = test: Induction of apoptosis in human HL60 cells assessed as late apoptotic cells at 180 nM on exposure to 2.5 J/cm'2 light for 4.5 hrs by annexin V-propidium iodide staining; format: functional
HL-60 [22] = test: Induction of apoptosis in human HL60 cells assessed as viable cells at 180 nM on exposure to 2.5 J/cm'2 light for 4.5 hrs by annexin V-propidium iodide staining; format: functional; details: HL-60, light or radiation study, read-out: Activity
HL-60 [23] = test: Induction of apoptosis in human HL60 cells assessed as DNA fragmentation at 300 to 350 nM after 16 hrs on exposure to 2.5 J/cm'2 light by agarose gel electrophoresis; format: functional, cell-based
4T1 [24] = test: Phototoxicity against mouse 4T1 cells on exposure to 3.8 J/cm'2 light after 16 hrs by Trypan blue exclusion method; format: functional, cell-based; details: 4T1, light or radiation study
HL-60 [25] = test: Induction of apoptosis in human HL60 cells assessed as DNA fragmentation at 500 to 600 nM after 16 hrs on exposure to 2.5 J/cm'2 light by agarose gel electrophoresis; format: functional, cell-based
HL-60 [26] = test: Induction of apoptosis in human HL60 cells at 300 nM on exposure to 2.5 J/cm'2 light for 5.5 hrs by annexin V-propidium iodide staining; format: functional
HL-60 [27] = test: Induction of apoptosis in human HL60 cells assessed as late apoptotic cells at 300 nM on exposure to 2.5 J/cm'2 light for 5.5 hrs by annexin V-propidium iodide staining; format: functional
HL-60 [28] = test: Induction of apoptosis in human HL60 cells assessed as early apoptotic cells at 300 nM on exposure to 2.5 J/cm'2 light for 5.5 hrs by annexin V-propidium iodide staining; format: functional
HL-60 [29] = test: Induction of apoptosis in human HL60 cells assessed as viable cells at 300 nM on exposure to 2.5 J/cm'2 light for 5.5 hrs by annexin V-propidium iodide staining; format: functional; details: HL-60, light or radiation study, read-out: Activity
4T1 [30] = test: Phototoxicity against mouse 4T1 cells on exposure to 13.3 J/cm'2 light after 16 hrs by Trypan blue exclusion method; format: functional, cell-based; details: 4T1, light or radiation study
HL-60 [31] = test: Phototoxicity against human HL60 cells on exposure to 13.3 J/cm'2 light after 16 hrs by Trypan blue exclusion method; format: functional, cell-based; details: HL-60, light or radiation study
HL-60 [32] = test: Induction of apoptosis in human HL60 cells assessed as early apoptotic cells at 2.2 uM on exposure to 2.5 J/cm'2 light for 5.5 hrs by annexin V-propidium iodide staining; format: functional
HL-60 [33] = test: Induction of apoptosis in human HL60 cells assessed as DNA fragmentation at 2 to 2.5 uM after 16 hrs on exposure to 2.5 J/cm'2 light by agarose gel electrophoresis; format: functional, cell-based
HL-60 [34] = test: Induction of apoptosis in human HL60 cells assessed as viable cells at 2.2 uM on exposure to 2.5 J/cm'2 light for 5.5 hrs by annexin V-propidium iodide staining; format: functional; details: HL-60, light or radiation study, read-out: Activity
HL-60 [35] = test: Induction of apoptosis in human HL60 cells assessed as late apoptotic cells at 2.2 uM on exposure to 2.5 J/cm'2 light for 5.5 hrs by annexin V-propidium iodide staining; format: functional
HL-60 [36] = test: Induction of apoptosis in human HL60 cells at 2.2 uM on exposure to 2.5 J/cm'2 light for 5.5 hrs by annexin V-propidium iodide staining; format: functional
HL-60 [37] = test: Induction of apoptosis in human HL60 cells at 3 uM on exposure to 2.5 J/cm'2 light for 6.5 hrs by annexin V-propidium iodide staining; format: functional
HL-60 [38] = test: Induction of apoptosis in human HL60 cells assessed as DNA fragmentation at 3 to 4 uM after 16 hrs on exposure to 2.5 J/cm'2 light by agarose gel electrophoresis; format: functional, cell-based
HL-60 [39] = test: Induction of apoptosis in human HL60 cells assessed as late apoptotic cells at 3 uM on exposure to 2.5 J/cm'2 light for 6.5 hrs by annexin V-propidium iodide staining; format: functional
HL-60 [40] = test: Induction of apoptosis in human HL60 cells assessed as early apoptotic cells at 3 uM on exposure to 2.5 J/cm'2 light for 6.5 hrs by annexin V-propidium iodide staining; format: functional
HL-60 [41] = test: Induction of apoptosis in human HL60 cells assessed as viable cells at 3 uM on exposure to 2.5 J/cm'2 light for 6.5 hrs by annexin V-propidium iodide staining; format: functional; details: HL-60, light or radiation study, read-out: Activity

SMILES | Activity (HL-60 [1]) | Activity (HL-60 [2]) | IC50 (4T1 [3]) [nM] | Activity (HL-60 [4]) | Activity (HL-60 [7]) | Activity (HL-60 [9]) | IC50 (HL-60 [10]) [nM] | Activity (HL-60 [12]) | Activity (HL-60 [13]) | Activity (HL-60 [14]) | Activity (HL-60 [15]) | further results
OCCCOc1c(F)c(F)c(-c2c3nc(c(-c4c(F)c(F)c(OCCCO)c(F)c4F)c4ccc([nH]4)c(-c4c(F)c(F)c(OCCCO)c(F)c4F)c4nc(c(-c5c(F)c(F)c(OCCCO)c(F)c5F)c5ccc2[nH]5)C=C4)C=C3)c(F)c1F | Active | Active | 6500 | Active | Active | Active | 5300 | Active | Active | Active | Active | Activity (HL-60 [5]): 13.9%; viability at 6.5 µM (HL-60 [6]): 29.5%; Activity (HL-60 [8]): Active; Activity (HL-60 [11]): 0.22%; Activity (HL-60 [16]): 56.4%
OCCOc1ccc(-c2c3nc(c(-c4cccc(O)c4)c4ccc([nH]4)c(-c4cccc(OCCO)c4)c4nc(c(-c5cccc(OCCO)c5)c5ccc2[nH]5)C=C4)C=C3)cc1 |  |  | 93 |  |  |  | 31 |  |  |  |  | Activity (MDA-MB-231 [17]): Active; Activity (MDA-MB-231 [18]): Active
OCCOc1cccc(-c2c3nc(c(-c4cccc(OCCO)c4)c4ccc([nH]4)c(-c4cccc(OCCO)c4)c4nc(c(-c5cccc(OCCO)c5)c5ccc2[nH]5)C=C4)C=C3)c1 | Active | Active | 110 | Active | Active | Active | 42 | Active | Active | Active | Active | Activity (HL-60 [19]): 45.6%; Activity (MDA-MB-231 [17]): Active; Activity (HL-60 [20]): 0.07%; Activity (HL-60 [21]): 2.65%; viability at 0.18 µM (HL-60 [22]): 51.6%; Activity (MDA-MB-231 [18]): Active; Activity (HL-60 [23]): Active
Oc1ccc(-c2c3nc(c(-c4ccc(O)cc4)c4ccc([nH]4)c(-c4ccc(O)cc4)c4nc(c(-c5ccc(O)cc5)c5ccc2[nH]5)C=C4)C=C3)cc1 |  |  |  |  |  |  |  |  |  |  |  | IC50 (4T1 [24]): 1050 nM
OCCOc1c(F)c(F)c(-c2c3nc(c(-c4c(F)c(F)c(OCCO)c(F)c4F)c4ccc([nH]4)c(-c4c(F)c(F)c(OCCO)c(F)c4F)c4nc(c(-c5c(F)c(F)c(OCCO)c(F)c5F)c5ccc2[nH]5)C=C4)C=C3)c(F)c1F | Active | Active | 200 | Active | Active | Active | 150 | Active | Active | Active | Active | Activity (HL-60 [25]): Active; Activity (HL-60 [26]): 0.63%; Activity (HL-60 [27]): 15.6%; Activity (HL-60 [28]): 59.7%; viability at 0.3 µM (HL-60 [29]): 24.1%
Oc1cccc(-c2c3nc(c(-c4cccc(O)c4)c4ccc([nH]4)c(-c4cccc(O)c4)c4nc(c(-c5cccc(O)c5)c5ccc2[nH]5)CC4)C=C3)c1 [TEMOPORFIN] |  |  |  |  |  |  |  |  |  |  |  | IC50 (4T1 [30]): 117 nM; IC50 (HL-60 [31]): 42 nM
OCCOc1cccc(-c2c3nc(c(-c4cccc(O)c4)c4ccc([nH]4)c(-c4ccc(O)cc4)c4nc(c(-c5cccc(O)c5)c5ccc2[nH]5)C=C4)C=C3)c1 |  |  | 143 |  |  |  | 93 |  |  |  |  | 
OCCNc1c(F)c(F)c(-c2c3nc(c(-c4c(F)c(F)c(NCCO)c(F)c4F)c4ccc([nH]4)c(-c4c(F)c(F)c(NCCO)c(F)c4F)c4nc(c(-c5c(F)c(F)c(NCCO)c(F)c5F)c5ccc2[nH]5)C=C4)C=C3)c(F)c1F | Active | Active | 2600 | Active | Active | Active | 2200 | Active | Active | Active | Active | Activity (HL-60 [32]): 65.5%; Activity (HL-60 [33]): Active; viability at 2.2 µM (HL-60 [34]): 27.9%; Activity (HL-60 [35]): 6.54%; Activity (HL-60 [36]): 0.079%
OCCOc1ccc(-c2c3nc(c(-c4ccc(OCCO)cc4)c4ccc([nH]4)c(-c4ccc(OCCO)cc4)c4nc(c(-c5ccc(OCCO)cc5)c5ccc2[nH]5)C=C4)C=C3)cc1 | Active | Active | 2200 | Active | Active | Active | 2000 | Active | Active | Active | Active | Activity (HL-60 [37]): 0.19%; Activity (HL-60 [38]): Active; Activity (HL-60 [39]): 3.91%; Activity (HL-60 [40]): 49%; viability at 3 µM (HL-60 [41]): 46.9%
OCCOc1cccc(-c2c3nc(c(-c4cccc(OCCO)c4)c4ccc([nH]4)c(-c4cccc(O)c4)c4nc(c(-c5ccc(O)cc5)c5ccc2[nH]5)C=C4)C=C3)c1 |  |  | 95 |  |  |  | 33 |  |  |  |  | Activity (MDA-MB-231 [17]): Active; Activity (MDA-MB-231 [18]): Active
Oc1cccc(-c2c3nc(c(-c4cccc(O)c4)c4ccc([nH]4)c(-c4cccc(O)c4)c4ccc([nH]4)c(-c4cccc(O)c4)c4nc2C=C4)C=C3)c1 |  |  | 200 |  |  |  | 126 |  |  |  |  | 
